# In US6818663B2, “Diaminothiazoles” (Hoffmann-La Roches, priority 2002, dated 2004):
# Experiments:
# human cyclin D1-CDK4 = human cyclin D1-CDK4 (Homo sapiens, UniProt P11802); test: FlashPlate kinase assay, cyclin D1-CDK4, Rb substrate; type: biochemical; conditions: recombinant cyclin D1-CDK4, Rb phosphorylation, 1 μM ATP
# Method: (§1) To determine inhibition of Cdk4, Cdk2 and Cdk1 activity, kinase assays were conducted using FlashPlate™ assays (NEN™-Life Science Products). FlashPlate assays were performed using recombinant human cyclin B-CDK1, human cyclin E-CDK2 or human cyclin D1-CDK4 complexes. GST-cyclinE (GST-cycE), CDK2, GST-cyclinB (GST-cycB), CDK1, GST-CDK4 and cyclin D1 (cycD1) cDNA clones in baculovirus vectors were provided by Dr. W. Harper at the Baylor College of Medicine, Houston, Tex. Proteins were co-expressed in High Five™ insect cells and the complex was purified on glutathione Sepharose resin (Pharmacia, Piscataway, N.J.) as previously described (Harper, J. W. et al. Cell 1993, 75, 805-816). A 6×-Histidine tagged truncated form of retinoblastoma (Rb) protein (amino acid 386-928) was used as the substrate for the cycD1-CDK4, cycB-CDK1 and the cycE-CDK2 assays (the expression plasmid was provided by Dr. Veronica Sullivan, Department of Molecular Virology, Roche Research Centre, Welwyn Garden City, United Kingdom). The Rb protein is a natural substrate for phosphorylation by CDK4, CDK2 and CDK1 (see Herwig and Strauss Eur. J. Biochem. Vol. 246 (1997) pp. 581-601 and the references cited therein).
# (§2) The expression of the 62 Kd protein was under the control of an IPTG inducible promoter in an M15 E. coli strain. Cells were lysed by sonication and purification was carried out by binding lysates at pH 8.0 to a Ni-chelated agarose column pretreated with 1 mM imidazole. The resin was then washed several times with incrementally decreasing pH buffers to pH 6.0, and eluted with 500 mM imidazole. Eluted protein was dialysed against 20 mM HEPES pH 7.5, 30% glycerol, 200 mM NaCl, and 1 mM DTT. Purified Rb fusion protein stocks were quantitated for protein concentration, aliquoted, and stored at −70° C.
# (§3) For all three kinase assays reported herein, 96-well FlashPlates were coated with Rb protein at 10 μg/ml, using 100 μl per well. Plates were incubated at 4° C. overnight or at room temperature for 3 hours on a shaker. To control for nonspecific phosphorylation, one row of wells was coated with 100 μl/well coating buffer (20 mM HEPES, 0.2 M NaCl). Plates were then washed twice with wash buffer (0.01% Tween 20 in phosphate-buffered saline). Compounds to be tested (“test compounds”) were added to the wells at 5×final concentration. Reactions were initiated by immediate addition of 40 μl reaction mix (25 mM HEPES, 20 mM MgCl2, 0.002% Tween 20, 2 mM DTT, 1 μM ATP, 4 nM ^33P-ATP) and a sufficient amount of enzyme to give counts that were at least 10-fold above background. Plates were incubated at room temperature on a shaker for 30 minutes. Plates were washed four times with the wash buffer, sealed, and counted on the TopCount scintillation counter (Packard Instrument Co., Downers Grove, Ill.]. The percent inhibition of Rb phosphorylation, which is a measure of the inhibition of CDK activity, was determined according to the following formula: [formula]
# (§4) where “test compound” refers to the average counts per minute of the test duplicates, “nonspecific” refers to the average counts per minute when no CyclinD/Cdk4, etc., was added, and “total” refers to the average counts per minute when no compound was added. The IC50 value is the concentration of test compound that reduces by 50% the protein-kinase induced incorporation of the radiolabel under the test conditions described.
# human cyclin B-CDK1 = human cyclin B-CDK1 (Homo sapiens, UniProt P06493); test: FlashPlate kinase assay, cyclin B-CDK1, Rb substrate; type: biochemical; conditions: recombinant cyclin B-CDK1, Rb phosphorylation, 1 μM ATP
# Sequence of human cyclin B-CDK1 (P06493 whole entry): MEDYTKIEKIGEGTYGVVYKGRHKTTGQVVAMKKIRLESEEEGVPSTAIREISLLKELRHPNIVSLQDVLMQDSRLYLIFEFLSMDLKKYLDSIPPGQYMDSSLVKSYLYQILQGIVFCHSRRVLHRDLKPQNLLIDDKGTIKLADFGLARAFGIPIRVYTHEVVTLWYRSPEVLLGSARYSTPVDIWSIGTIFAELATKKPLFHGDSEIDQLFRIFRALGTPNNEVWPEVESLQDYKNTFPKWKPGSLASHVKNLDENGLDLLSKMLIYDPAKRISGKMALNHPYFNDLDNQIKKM
# Sequence of human cyclin B-CDK1 (P14635 whole entry partner): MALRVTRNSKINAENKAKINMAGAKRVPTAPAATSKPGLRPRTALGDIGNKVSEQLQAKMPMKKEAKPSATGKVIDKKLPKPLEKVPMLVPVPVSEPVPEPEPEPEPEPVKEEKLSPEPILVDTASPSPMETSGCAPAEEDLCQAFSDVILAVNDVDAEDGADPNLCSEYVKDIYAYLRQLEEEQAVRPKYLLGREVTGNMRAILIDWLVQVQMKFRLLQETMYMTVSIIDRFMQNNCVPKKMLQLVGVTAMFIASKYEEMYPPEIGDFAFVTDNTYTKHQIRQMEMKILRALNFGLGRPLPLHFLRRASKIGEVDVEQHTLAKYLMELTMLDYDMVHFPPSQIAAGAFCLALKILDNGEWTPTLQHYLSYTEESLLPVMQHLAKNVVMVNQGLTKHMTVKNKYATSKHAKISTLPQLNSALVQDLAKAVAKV
# Method: as §1, §2, §3, §4
# human cyclin E-CDK2 = human cyclin E-CDK2 (Homo sapiens, UniProt P24941); test: FlashPlate kinase assay, cyclin E-CDK2, Rb substrate; type: biochemical; conditions: recombinant cyclin E-CDK2, Rb phosphorylation, 1 μM ATP
# Method: as §1, §2, §3, §4
# [1] = tested on: HCT116, a colorectal carcinoma cell line; test: Tetrazolium dye proliferation assay (MTT assay); type: cell-based; conditions: Homo sapiens, HCT-116, HCT116 cells, inhibition of cell proliferation
# Method: Proliferation was evaluated by the tetrazolium dye assay according to the procedure of Denizot and Lang (Denizot, F. and Lang, R. J Immunol Methods 1986, 89, 271-277). The cell line used was HCT116, a colorectal carcinoma cell line obtained from the American Type Cell Culture Collection (ATCC; Rockville, Md.). The cells were grown in McCoy's 5A medium supplemented with 10% FCS and L-glutamine.
# Cells were plated at the appropriate seeding density to give logarithmic growth over the course of the assay in a 96-well tissue culture plate. Plates were incubated overnight at 37° C. in a humidified incubator with 5% CO2. The next day, test compounds were serially diluted to four times the final concentration in the appropriate medium containing 1.2% DMSO. One-fourth final volume of each dilution was added in duplicate to the plates containing cells. The same volume of 1.2% DMSO in medium was added to a row of “control wells” such that the final concentration of DMSO in each well was 0.3%. Wells to which no cells were added served as the “blank.” Wells to which no inhibitor was added served as “no inhibitor control.” The plates were) returned to the incubator, and at set time points (determined by their growth curves) plates were analyzed as described below.
# 3-(4,5-dimethylthiazole-2-yl)-2,5-diphenyl-2H-tetrazolium bromide (thiazolyl blue; MTT; Sigma) was added to each well to yield a final concentration of 1 mg/ml. Plates were returned to the incubator for 2.5-3 hours at 37° C. The MTT-containing medium was removed and the resulting formazan metabolite was solubilized in 100% ethanol with shaking for 15 minutes at room temperature. Absorbance readings were taken in a microtiter plate reader (Dynatech and Molecular Devices plate readers were used interchangeably) at a wavelength of 570 nm with a 650 nm reference. Percent inhibition (% INH) is calculated by subtracting the absorbance of the blank well from all wells, then subtracting the ratio of the average absorbance of each test duplicate (SAVE) by the average of the controls (CAVE) from 1.00. The final number is then multiplied by 100 (% INH=(1.00−SAVE/CAVE)×100). The concentration at which 50% inhibition of cell proliferation is obtained (the IC50) is determined from the linear regression of a plot of the logarithm of the concentration versus percent inhibition.
# Sequence of human cyclin D1-CDK4 (P11802 whole entry): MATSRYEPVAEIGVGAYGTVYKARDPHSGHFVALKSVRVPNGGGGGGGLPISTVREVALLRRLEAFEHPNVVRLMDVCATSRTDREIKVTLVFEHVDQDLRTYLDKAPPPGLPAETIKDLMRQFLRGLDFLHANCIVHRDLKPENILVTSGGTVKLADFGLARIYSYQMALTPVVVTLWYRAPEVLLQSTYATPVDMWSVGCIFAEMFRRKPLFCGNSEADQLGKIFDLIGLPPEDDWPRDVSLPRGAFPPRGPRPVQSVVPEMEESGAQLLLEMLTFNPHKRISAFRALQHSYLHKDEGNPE
# Sequence of human cyclin D1-CDK4 (P24385 whole entry partner): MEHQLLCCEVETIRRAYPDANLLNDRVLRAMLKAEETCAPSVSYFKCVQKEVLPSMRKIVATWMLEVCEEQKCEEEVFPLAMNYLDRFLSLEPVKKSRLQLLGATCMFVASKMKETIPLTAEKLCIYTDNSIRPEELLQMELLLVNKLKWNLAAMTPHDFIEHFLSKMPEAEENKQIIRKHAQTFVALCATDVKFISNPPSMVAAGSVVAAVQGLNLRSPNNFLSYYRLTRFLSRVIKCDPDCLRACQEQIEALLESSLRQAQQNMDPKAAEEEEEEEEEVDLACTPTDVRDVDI
IC50 (human cyclin D1-CDK4) [nM],IC50 (human cyclin B-CDK1) [nM],IC50 (human cyclin E-CDK2) [nM],IC50 [1] [nM],SMILES
87,581,1010,346,"C[C@H](COc1ccc(Nc2nc(N)c(C(=O)c3cccc(F)c3)s2)cc1)N(C)C [Example 40, (R)-[4-Amino-2-[4-(2-dimethylamino-propoxy)-phenylamino]-thiazol-5-yl]-(3-fluoro-phenyl)-methanone]"
63,435,1040,669,"C[C@H](COc1ccc(Nc2nc(N)c(C(=O)c3cccc(F)c3)s2)cc1)N1CCCC1 [Example 41, (R)-[4-Amino-2-[4-(2-pyrrolidin-1-yl-propoxy)-phenylamino]-thiazol-5-yl]-(3-fluoro-phenyl)-methanone]"
57,298,496,859,"CCN1CCC(Oc2ccc(Nc3nc(N)c(C(=O)c4cccc(F)c4)s3)cc2)C1 (centres unmarked) [Example 42, [4-Amino-2-[4-(1-ethyl-pyrrolidin-3-yloxy)-phenylamino]-thiazol-5-yl]-(3-fluoro-phenyl)-methanone]"
59,700,1150,760,"CCN1CCCC(Oc2ccc(Nc3nc(N)c(C(=O)c4cccc(F)c4)s3)cc2)C1 (centres unmarked) [Example 43, [4-Amino-2-[4-(1-ethyl-piperidin-3-yloxy)-phenylamino]-thiazol-5-yl]-(3-fluoro-phenyl)-methanone]"
65,594,1270,390,"CN1CCC[C@H]1COc1ccc(Nc2nc(N)c(C(=O)c3cccc(F)c3)s2)cc1 [Example 44, (S)-[4-Amino-2-[4-(1-methyl-pyrrolidin-2-ylmethoxy)-phenylamino]-thiazol-5-yl]-(3-fluoro-phenyl)-methanone]"
39,158,589,1240,"Nc1nc(Nc2ccc(OC3CCNC3)cc2)sc1C(=O)c1cccc(F)c1 (centres unmarked) [Example 45, [4-Amino-2-[4-(pyrrolidin-3-yloxy)-phenylamino]-thiazol-5-yl]-(3-fluoro-phenyl)-methanone]"
60,1700,3360,1040,"Cc1cccc(C(=O)c2sc(Nc3ccc(OCCN(C)C)cc3)nc2N)c1 [Example 50, [4-Amino-2-[4-(2-dimethylamino-ethoxy)-phenylamino]-thiazol-5-yl]-m-tolyl-methanone]"
53,1060,2930,614,"Cc1cccc(C(=O)c2sc(Nc3ccc(OCCN4CCCC4)cc3)nc2N)c1 [Example 51, [4-Amino-2-[4-(2-pyrrolidin-1-yl-ethoxy)-phenylamino]-thiazol-5-yl]-m-tolyl-methanone]"
27,3230,1210,526,"CCc1cccc(C(=O)c2sc(Nc3ccc(OCCN(C)C)cc3)nc2N)c1 [Example 52, [4-Amino-2-[4-(2-dimethylamino-ethoxy)-phenylamino]-thiazol-5-yl]-(3-ethyl-phenyl)-methanone]"
22,2990,930,402,"CCc1cccc(C(=O)c2sc(Nc3ccc(OCCN4CCCC4)cc3)nc2N)c1 [Example 53, [4-Amino-2-[4-(2-pyrrolidin-1-yl-ethoxy)-phenylamino]-thiazol-5-yl]-(3-ethyl-phenyl)-methanone]"
36,381,1240,1640,"CN(C)CCOc1ccc(Nc2nc(N)c(C(=O)c3cccc([N+](=O)[O-])c3)s2)cc1 [Example 54, [4-Amino-2-[4-(2-dimethylamino-ethoxy)-phenylamino]-thiazol-5-yl]-(3-nitro-phenyl)-methanone]"
66,376,4890,2920,"Nc1nc(Nc2ccc(OCCN3CCCC3)cc2)sc1C(=O)c1ccc2c(c1)OCO2 [Example 57, [4-Amino-2-[4-(2-pyrrolidin-1-yl-ethoxy)-phenylamino]-thiazol-5-yl]-benzo[1,3]dioxol-5-yl-methanone]"
46,1210,1560,954,"CCc1cccc(C(=O)c2sc(Nc3ccc(OCC(C)(C)N(C)C)cc3)nc2N)c1 [Example 61, [4-Amino-2-[4-(2-dimethylamino-2-methyl-propoxy)-phenylamino]-thiazol-5-yl]-(3-ethyl-phenyl)-methanone]"
33,1810,4440,1300,"CCOc1cccc(C(=O)c2sc(Nc3ccc(OCCN4CCCC4)cc3)nc2N)c1 [Example 62, [4-Amino-2-[4-(2-pyrrolidin-1-yl-ethoxy)-phenylamino]-thiazol-5-yl]-(3-ethoxy-phenyl)-methanone]"
80,2570,1900,623,"CCc1cccc(C(=O)c2sc(Nc3ccc(OC[C@@H](C)N(C)C)cc3)nc2N)c1 [Example 63, (R)-[4-Amino-2-[4-(2-dimethylamino-propoxy)-phenylamino]-thiazol-5-yl]-(3-ethyl-phenyl)-methanone]"
85,1070,1690,3240,"CN(C)CCOc1ccc(Nc2nc(N)c(C(=O)c3cccc(Br)c3)s2)cc1 [Example 65, [4-Amino-2-[4-(2-dimethylamino-ethoxy)-phenylamino]-thiazol-5-yl]-(3-bromo-phenyl)-methanone]"
70,2760,1480,846,"CCc1cccc(C(=O)c2sc(Nc3ccc(OC[C@@H](C)N4CCCC4)cc3)nc2N)c1 [Example 67, (R)-[4-Amino-2-[4-(2-pyrrolidin-1-yl-propoxy)-phenylamino]-thiazol-5-yl]-(3-ethyl-phenyl)-methanone]"
